# Experimental data reported in the supplement of paper PMC10307832.
# Assays:
# Assay in all cases: relative viability (nuclei count vs DMSO), 5 days (fraction); higher = more cells survive
# A-427 = system: A-427
# Method in brief: (§1)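 Lung cancer cell lines were pin-tool dosed in 1536-well plates on the day after seeding, with either a lone drug or a fixed anchor-drug dose plus five library-drug doses (not always all listed) in √10 steps. Nuclei were counted on 4× images after 5 days. Relative viability is the ratio of treated-well to vehicle-well nuclei counts, with each value a median of duplicate plates.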
# HCC-15 = system: HCC-15
# Method in brief: as §1
# NCI-H2347 = system: NCI-H2347
# Method in brief: as §1
# PC-3 [JPC-3] = system: PC-3 [JPC-3]
# Method in brief: as §1
# NCI-H1975 = system: NCI-H1975
# Method in brief: as §1
# LC-2-ad = system: LC-2-ad
# Method in brief: as §1
# LXF-289 = system: LXF-289
# Method in brief: as §1
# HCC-78 = system: HCC-78
# Method in brief: as §1
# NCI-H1734 = system: NCI-H1734
# Method in brief: as §1
# NCI-H522 = system: NCI-H522
# Method in brief: as §1
# SW 1573 = system: SW 1573
# Method in brief: as §1
# NCI-H1792 = system: NCI-H1792
# Method in brief: as §1
# NCI-H1755 = system: NCI-H1755
# Method in brief: as §1
# NCI-H2126 = system: NCI-H2126
# Method in brief: as §1
# NCI-H2228 = system: NCI-H2228
# Method in brief: as §1
# NCI-H1915 = system: NCI-H1915
# Method in brief: as §1
# RERF-LC-KJ = system: RERF-LC-KJ
# Method in brief: as §1
# NCI-H647 = system: NCI-H647
# Method in brief: as §1
# NCI-H2342 = system: NCI-H2342
# Method in brief: as §1
# HOP-62 = system: HOP-62
# Method in brief: as §1
# SK-LU-1 = system: SK-LU-1
# Method in brief: as §1
# NCI-H358 = system: NCI-H358
# Method in brief: as §1
smiles,measurement,setting,value
COc1nc(C)cnc1NS(=O)(=O)c1cccnc1-c1ccc(-c2nnco2)cc1 [Zibotentan] + Cc1nc(Nc2ncc(C(=O)Nc3c(C)cccc3Cl)s2)cc(N2CCN(CCO)CC2)n1 [Dasatinib] (partner 0.075 µM),relative viability,A-427; first compound 0.08 µM,0.908
same,relative viability,A-427; first compound 0.253 µM,0.69
same,relative viability,A-427; first compound 0.8 µM,0.7
same,relative viability,A-427; first compound 2.53 µM,0.828
same,relative viability,HCC-15; first compound 0.08 µM,0.601
same,relative viability,HCC-15; first compound 0.8 µM,0.512
same,relative viability,HCC-15; first compound 2.53 µM,0.684
same,relative viability,NCI-H2347; first compound 0.253 µM,0.294
same,relative viability,NCI-H2347; first compound 0.8 µM,0.298
same,relative viability,NCI-H2347; first compound 2.53 µM,0.331
same,relative viability,PC-3 [JPC-3]; first compound 0.08 µM,0.989
same,relative viability,PC-3 [JPC-3]; first compound 0.253 µM,1.02
same,relative viability,PC-3 [JPC-3]; first compound 0.8 µM,1.01
same,relative viability,PC-3 [JPC-3]; first compound 2.53 µM,1.12
same,relative viability,NCI-H1975; first compound 0.08 µM,0.378
same,relative viability,NCI-H1975; first compound 0.253 µM,0.341
same,relative viability,NCI-H1975; first compound 0.8 µM,0.307
same,relative viability,NCI-H1975; first compound 2.53 µM,0.376
same,relative viability,LC-2-ad; first compound 0.08 µM,0.688
same,relative viability,LC-2-ad; first compound 0.8 µM,0.625
same,relative viability,LC-2-ad; first compound 2.53 µM,0.511
same,relative viability,LXF-289; first compound 0.08 µM,0.247
same,relative viability,LXF-289; first compound 0.253 µM,0.22
same,relative viability,LXF-289; first compound 0.8 µM,0.206
same,relative viability,LXF-289; first compound 2.53 µM,0.244
same,relative viability,HCC-78; first compound 0.08 µM,0.513
same,relative viability,HCC-78; first compound 0.253 µM,0.313
same,relative viability,HCC-78; first compound 0.8 µM,0.391
same,relative viability,HCC-78; first compound 2.53 µM,0.309
same,relative viability,NCI-H1734; first compound 0.08 µM,0.484
same,relative viability,NCI-H1734; first compound 0.253 µM,0.42
same,relative viability,NCI-H1734; first compound 0.8 µM,0.487
same,relative viability,NCI-H1734; first compound 2.53 µM,0.564
same,relative viability,NCI-H522; first compound 0.08 µM,0.479
same,relative viability,NCI-H522; first compound 0.253 µM,0.839
same,relative viability,NCI-H522; first compound 0.8 µM,0.974
same,relative viability,NCI-H522; first compound 2.53 µM,0.964
same,relative viability,SW 1573; first compound 0.08 µM,0.565
same,relative viability,SW 1573; first compound 0.8 µM,0.537
same,relative viability,SW 1573; first compound 2.53 µM,0.556
same,relative viability,NCI-H1792; first compound 0.08 µM,0.872
same,relative viability,NCI-H1792; first compound 0.253 µM,0.664
same,relative viability,NCI-H1792; first compound 0.8 µM,0.635
same,relative viability,NCI-H1792; first compound 2.53 µM,0.827
same,relative viability,NCI-H1755; first compound 0.08 µM,0.433
same,relative viability,NCI-H1755; first compound 0.253 µM,0.413
same,relative viability,NCI-H1755; first compound 0.8 µM,0.4
same,relative viability,NCI-H1755; first compound 2.53 µM,0.473
same,relative viability,NCI-H2126; first compound 0.08 µM,0.632
same,relative viability,NCI-H2126; first compound 0.8 µM,0.53
same,relative viability,NCI-H2126; first compound 2.53 µM,0.685
same,relative viability,NCI-H2228; first compound 0.08 µM,0.554
same,relative viability,NCI-H2228; first compound 0.253 µM,0.509
same,relative viability,NCI-H2228; first compound 0.8 µM,0.495
same,relative viability,NCI-H2228; first compound 2.53 µM,0.608
same,relative viability,NCI-H1915; first compound 0.08 µM,0.382
same,relative viability,NCI-H1915; first compound 0.253 µM,0.29
same,relative viability,NCI-H1915; first compound 0.8 µM,0.336
same,relative viability,NCI-H1915; first compound 2.53 µM,0.29
same,relative viability,RERF-LC-KJ; first compound 0.08 µM,0.863
same,relative viability,RERF-LC-KJ; first compound 0.8 µM,0.671
same,relative viability,RERF-LC-KJ; first compound 2.53 µM,0.749
same,relative viability,NCI-H647; first compound 0.08 µM,0.145
same,relative viability,NCI-H647; first compound 0.253 µM,0.185
same,relative viability,NCI-H647; first compound 0.8 µM,0.215
same,relative viability,NCI-H647; first compound 2.53 µM,0.195
same,relative viability,NCI-H2342; first compound 0.08 µM,0.354
same,relative viability,NCI-H2342; first compound 0.253 µM,0.308
same,relative viability,NCI-H2342; first compound 0.8 µM,0.309
same,relative viability,NCI-H2342; first compound 2.53 µM,0.314
same,relative viability,HOP-62; first compound 0.08 µM,0.706
same,relative viability,HOP-62; first compound 0.253 µM,0.634
same,relative viability,HOP-62; first compound 0.8 µM,0.719
same,relative viability,HOP-62; first compound 2.53 µM,0.758
same,relative viability,SK-LU-1; first compound 0.08 µM,0.17
same,relative viability,SK-LU-1; first compound 0.253 µM,0.172
same,relative viability,SK-LU-1; first compound 0.8 µM,0.189
same,relative viability,SK-LU-1; first compound 2.53 µM,0.198
same,relative viability,NCI-H358; first compound 0.08 µM,0.175
same,relative viability,NCI-H358; first compound 0.253 µM,0.152
same,relative viability,NCI-H358; first compound 0.8 µM,0.151
same,relative viability,NCI-H358; first compound 2.53 µM,0.166
